Results taken from PMC7824787, “Design, Synthesis and In Vitro Investigation of Novel Basic Celastrol Carboxamides as Bio-Inspired Leishmanicidal Agents Endowed with Inhibitory Activity against Leishmania Hsp90” (Biomolecules, 2021).

Legend:
[1] = biological target: LbHsp90 (Leishmania braziliensis, UniProt A4HL70); experiment: LbHsp90 ATPase kinetics (NADH-coupled enzymatic cascade); type: biochemical; conditions: for LbHsp90 Inhibition (%): compound 50 μM, 3.5 μM LbHsp90, 1 mM ATP; for inhibition at 50 µM: read-out: LbHsp90 Inhibition (%), compound 50 μM, 3.5 μM LbHsp90, 1 mM ATP
Procedure: The reaction was initiated by the addition of ATP (1 mM) and absorbance changes at 346 nm were monitored for 30 min at 30 °C.
Native LbHsp90 kinetics was measured as described but in the absence of DMSO. Two control experiments were run as follows: • (1) Efficiency of the enzymatic cascade by the used compounds: HEPES buffer (20 mM, pH 7.5) containing KCl (100 mM), MgCl2 (1 mM), ADP (1 mM), NADH (0.18 mM), L-lactate dehydrogenase (4 U mL^−1), phosphoenolpyruvate (1 mM), pyruvate kinase (2.5 U mL^−1); • (2) Interference of the tested compound(s) with the enzymatic cascade: HEPES buffer (20 mM, pH 7.5) containing KCl (100 mM), MgCl2 (1 mM), ADP (1 mM), NADH (0.18 mM), L-lactate dehydrogenase (4 U mL^−1), phosphoenolpyruvate (1 mM), pyruvate kinase (2.5 U mL^−1) and 50 μM compound.
Accordingly, an in vitro assay developed for the evaluation of non-competitive allosteric modulators, which exploits ATPase kinetics data, was used. Briefly, the decrease in absorbance deriving from the continuous oxidation of NADH to NAD^+ produced by a multi-enzymatic cascade triggered by LbHp90-catalyzed ATP hydrolysis is followed spectrophotometrically over the course of 15 min (for details see Appendix B). All the experiments were normalized using the native ATPase activity of LbHsp90 measured in the presence of DMSO, the co-solvent selected for compounds solubilization.
Figure A1 Enzymatic cascade reactions to spectroscopically evaluate L. Hsp90 ATPase kinetics. The ADP produced by ATP hydrolysis during the chaperone cycle reacts with PEP (phosphoenolpyruvate) to form pyruvate in a reaction catalyzed by the enzyme pyruvate kinase (PK), whereby ATP is regenerated. Pyruvate then continues the cascade process and is reduced to lactic acid by action of lactate dehydrogenase (LDH), whereby NADH is oxidized to NAD^+.
LbHsp90 inhibition (%) = (1 − k/knative) * 100 k = ΔAbs/min = extrapolated apparent kinetic constant (Abs/min)

[2] = test system: L. infantum promastigotes; experiment: Morphological differentiation of Leishmania promastigotes; type: cell-based, Leishmania infantum; conditions: 50 ng/mL, 23 °C, 48 h (Figure 6)
Procedure: L. infantum promastigotes were diluted in complete medium to 4 × 10^7 parasites/mL and 250 µL of the suspension were seeded into the 24 wells plates and incubated at 23 °C in the presence of geldanamycin, CE or compound 2 at the final concentration of 50 ng/mL. Cultures without drugs incubated at 23 °C or at 37 °C were used as negative and positive control, respectively. After 24 or 48 h of incubation, parasite morphology was evaluated by optical microscopy at 100× (Eclipse Ti Series, Nikon, Minato, Tokyo, Japan) on Giemsa stained smears (a mixture of eosin, methylene blue and Azure-B diluted 1:10). The percent of round promastigotes in treated and non-treated cells was determined. Images were taken at the same magnification by using a digital camera (Nikon Digital Sight). About 500 promastigotes were counted in 4 random fields.
The compounds were incubated (23 °C, physiological pH) with L. infantum promastigotes at a sub-IC50 concentration of 50 ng/mL. […] After 24 h and 48 h the presence of round, amastigote-like cells, was monitored (Figure 6). A negative and positive control experiment (NC and PC, Figure 6a,b) were also conducted growing the promastigotes at 23 °C and 37 °C, respectively.

Chain of LbHsp90 (A4HL70 entry or part of it): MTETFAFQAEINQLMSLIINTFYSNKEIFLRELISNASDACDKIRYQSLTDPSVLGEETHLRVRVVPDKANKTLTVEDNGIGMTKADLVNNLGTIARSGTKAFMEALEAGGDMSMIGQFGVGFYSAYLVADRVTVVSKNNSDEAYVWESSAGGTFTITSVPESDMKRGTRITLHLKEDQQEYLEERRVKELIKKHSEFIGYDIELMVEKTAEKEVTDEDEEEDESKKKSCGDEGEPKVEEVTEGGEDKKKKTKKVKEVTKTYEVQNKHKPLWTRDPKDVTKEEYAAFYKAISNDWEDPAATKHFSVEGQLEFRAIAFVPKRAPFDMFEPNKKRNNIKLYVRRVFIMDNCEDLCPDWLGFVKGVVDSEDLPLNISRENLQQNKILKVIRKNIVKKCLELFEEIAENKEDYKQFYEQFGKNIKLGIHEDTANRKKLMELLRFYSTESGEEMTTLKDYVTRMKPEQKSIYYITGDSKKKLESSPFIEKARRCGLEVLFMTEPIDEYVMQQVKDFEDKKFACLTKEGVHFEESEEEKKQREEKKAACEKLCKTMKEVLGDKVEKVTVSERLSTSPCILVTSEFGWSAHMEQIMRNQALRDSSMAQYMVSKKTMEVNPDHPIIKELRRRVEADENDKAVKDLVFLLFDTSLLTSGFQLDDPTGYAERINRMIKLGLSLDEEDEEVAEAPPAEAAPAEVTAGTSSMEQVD

Structure (SMILES) | LbHsp90 Inhibition (%) [1] [%] | inhibition at 50 µM [1] [%] | round amastigote-like cells (morphological differentiation) [2]
CC1=C(O)C(=O)C=C2C1=CC=C1[C@@]2(C)CC[C@@]2(C)[C@@H]3C[C@](C)(C(=O)O)CC[C@]3(C)CC[C@]12C [CE, celastrol] | 28.9 ± 5.4 | 30 | neither CE nor compound 3 produced this effect
CC1=C(O)C(=O)C=C2C1=CC=C1[C@@]2(C)CC[C@@]2(C)[C@@H]3C[C@](C)(C(=O)NCCN4CCCC4)CC[C@]3(C)CC[C@]12C [compound 3, (2R,4aS,6aS,12bR,14aS,14bR)-10-hydroxy-2,4a,6a,9,12b,14a-hexamethyl-11-oxo-N-(2-(pyrrolidin-1-yl)ethyl)-1,2,3,4,4a,5,6,6a,11,12b,13,14,14a,14b-tetradecahydropicene-2-carboxamide] | 97.8 ± 1.2 | 95 | neither CE nor compound 3 produced this effect
